{"source": "patent US20200341014A1", "about": "“PD Marker of Hepatocyte Growth Factor (HGF)” (EISAI R&D MANAGEMENT CO., LTD., priority 2016, published 2020)", "key": {"Jo2 liver failure model": {"test_system": "Jo2 liver failure model", "assay": "Severity of hepatopathy (AST, ALT, PT) in Jo2 liver failure model", "type": "in vivo, mouse", "conditions": "Jo2 liver failure mice, rh-HGF into tail vein 1 hour before anti-Fas MAb, 5 hours after MAb; FIG. 4", "procedure": "To BALB/cAnNCrlCrlj male 6 weeks-old mice (CHARLES RIVER JAPAN), 0.23 mg/kg of anti-Fas monoclonal antibody (clone name: Jo2, BD Pharmingen, #554254, lot#3269634) was administered once into the tail vein to create an acute liver failure model. To this model, rh-HGF dissolved in PBS was administered into the tail vein at 0.15, 1.5, or 15 mg/kg 1 hour before administration of anti-Fas monoclonal antibody. For the control group (Control), PBS was administered into the tail vein. Five hours after the administration of anti-Fas monoclonal antibody, mice were retained under anesthesia by 3% isoflurane inhalation, blood was collected from the vein located behind the jaw bone, and Prothrombin time (PT) was measured with CoaguChek XS (Roche-diagnostics, #ES350009) and PT Test strips (Roche-diagnostics, #ES350054). […] The measurement of Aspartate Aminotransferase (AST) and Alanine transaminase (ALT) in the serum was each performed with L-type Wako AST·J2 (Wako) kit and L-type Wako ALT·J2 (Wako) kit and an automatic analysis device (Hitachi 7180 Automatic Analyzer, Hitachi High-Technologies). With the measurement results of PT, AST, ALT, and serum ApoA4 protein, Dunnett's multiple comparison test was carried out between the control and the rh-HGF administration groups (FIG. 4)."}, "human ApoA4 protein": {"test_system": "human ApoA4 protein", "assay": "Western blot quantification of human ApoA4 protein in human hepatocyte culture supernatant", "type": "cell-based", "conditions": "human primary culture hepatocytes, culture supernatant, rh-HGF 100, 300 or 1000 ng/mL, 24 hours; FIG. 6", "procedure": "Human primary culture hepatocytes seeded in a 24-well plate (3.8×10^5 cells/well, Biopredic International, #HEP220-MW24) were cultured for three days in Incubation Medium (product name: Biopredic International, #MIL214), then c-Met inhibitor PF-04217903 (final concentration 100 nmol/L) (Selleck Chemicals, #S1094, lot. 05) or vehicle (DMSO) was added, and after 1 hour, rh-HGF (final concentration 100, 300, or 1000 ng/mL) or (Incubation Medium) for the control group (Control) was added.\nUsing hepatocyte culture supernatant (the same culture supernatant as that of cells for preparation of mRNA) 24 Hours after addition of rh-HGF, ApoA4 protein was quantified by Western blot method. […] After washing three times with the above wash solution, chemiluminescence solution SuperSignal West Dura Extended Duration Substrate (Thermo Scientific) was added to allow luminescence, and ApoA4 protein was detected with LAS-4000 (FUJIFILM).\nWith the quantification results of ApoA4 protein, Dunnett's multiple comparison test was carried out between the control and the rh-HGF administration groups."}, "ApoA4 protein": {"test_system": "ApoA4 protein", "assay": "Western blot quantification of serum ApoA4 protein in Jo2 liver failure mice", "type": "in vivo, mouse", "conditions": "rh-HGF at 1.5, 5, or 15 mg/kg, FIG. 4", "procedure": "To BALB/cAnNCrlCrlj male 6 weeks-old mice (CHARLES RIVER JAPAN), 0.23 mg/kg of anti-Fas monoclonal antibody (clone name: Jo2, BD Pharmingen, #554254, lot#3269634) was administered once into the tail vein to create an acute liver failure model. […] For the control group (Control), PBS was administered into the tail vein.\nQuantification of serum ApoA4 protein was carried out according to Example 2.\nWith the measurement results of PT, AST, ALT, and serum ApoA4 protein, Dunnett's multiple comparison test was carried out between the control and the rh-HGF administration groups (FIG. 4)."}}}
{"substance": "rh-HGF: human HGF recombinantly expressed in CHO cells, activated with hepatocyte growth factor activator recombinantly expressed in CHO cells", "values": [{"measurement": "Effect on elevation of ALT", "setting": "Jo2 liver failure model", "value": "strongly inhibited"}, {"measurement": "Effect on elevation of AST", "setting": "Jo2 liver failure model", "value": "strongly inhibited"}, {"measurement": "Effect on extension of PT (Prothrombin time)", "setting": "Jo2 liver failure model", "value": "strongly inhibited"}, {"measurement": "Extracellular release of human ApoA4 protein", "setting": "human ApoA4 protein", "value": "strongly enhanced"}, {"measurement": "Blood ApoA4 protein value", "setting": "ApoA4 protein", "value": "significant elevation"}]}
